Source: the supplement of paper PMC5579334

Assays:
S1507-2 [1] = assay: relative IC50 (inflection point of fitted dose-response curve, CellTiter-Glo viability, 72 h; top asymptote may be below 50% inhibition); higher = less potent
Procedure, shortened: (§1)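 After seeding 750–1000 cells per well of MPNST cell lines or primary human Schwann cells into 384-well plates preprinted with each compound at five concentrations in 10-fold steps, plates were kept 72 h at 37 °C, 5% CO2. Viability was read as CellTiter-Glo ATP luminescence relative to vehicle and positive-control wells, with duplicates averaged where present. The data were fitted with four-parameter logistic models. Drug sensitivity score and relative IC50, censored at the top concentration, derive from the fits, and percent inhibition refers to the top concentration.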

HS-Sch-2 = assay: as above
Procedure, shortened: as §1

S462 = assay: as above
Procedure, shortened: as §1

HSC1 [2] = assay: as above
Procedure, shortened: as §1

HS-PSS [3] = assay: as above
Procedure, shortened: as §1

ST8814 [4] = assay: as above
Procedure, shortened: as §1

YST-1 = assay: as above
Procedure, shortened: as §1

HSC2 [5] = assay: as above
Procedure, shortened: as §1

STS26T [6] = assay: as above
Procedure, shortened: as §1

HSC1 [7] = assay: relative IC50 (inflection point of fitted dose-response curve, CellTox-Green cytotoxicity, 72 h; top asymptote may be below 50%); higher = less potent
Procedure, shortened: (§2)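 For 72 h at 37 °C, MPNST cell lines and primary human Schwann cells were exposed in 384-well plates to five 10-fold compound dilutions. CellTox-Green, added before seeding at a final 1:1000 dilution, gave fluorescence from DNA released by disrupted cells. Signals were scaled to vehicle and positive-control wells, cultures failing plate quality control were left out, and four-parameter logistic fits were applied. Relative IC50 and drug sensitivity score were derived from the fits, with IC50 censored at the top concentration.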

HS-PSS [8] = assay: as above
Procedure, shortened: as §2

ST8814 [9] = assay: as above
Procedure, shortened: as §2

HSC2 [10] = assay: as above
Procedure, shortened: as §2

STS26T [11] = assay: as above
Procedure, shortened: as §2

S1507-2 [12] = assay: as above
Procedure, shortened: as §2

| Structure (SMILES) | relative IC50 (S1507-2 [1]) | relative IC50 (HS-Sch-2) | relative IC50 (S462) | relative IC50 (HSC1 [2]) | relative IC50 (HS-PSS [3]) | relative IC50 (ST8814 [4]) | relative IC50 (YST-1) | relative IC50 (HSC2 [5]) | relative IC50 (STS26T [6]) | relative IC50 (HSC1 [7]) | relative IC50 (HS-PSS [8]) | relative IC50 (ST8814 [9]) | relative IC50 (HSC2 [10]) | relative IC50 (STS26T [11]) | relative IC50 (S1507-2 [12]) |
| --- | --- | --- | --- | --- | --- | --- | --- | --- | --- | --- | --- | --- | --- | --- | --- |
| CNNCc1ccc(C(=O)NC(C)C)cc1 [Procarbazine] | > 10 µM | > 10 µM | > 10 µM | > 10 µM | > 10 µM | > 10 µM | > 10 µM | > 10 µM | > 10 µM | > 10 µM | > 10 µM | > 10 µM | > 10 µM | > 10 µM | – |
| CO[C@H]1C[C@@H]2CC[C@@H](C)[C@@](O)(O2)C(=O)C(=O)N2CCCC[C@H]2C(=O)O[C@H]([C@H](C)C[C@@H]2CC[C@@H](OC(=O)C(C)(CO)CO)[C@H](OC)C2)CC(=O)[C@H](C)/C=C(\C)[C@@H](O)[C@@H](OC)C(=O)[C@H](C)C[C@H](C)/C=C/C=C/C=C/1C [Temsirolimus] | 0.000775 µM | 0.00118 µM | 0.00134 µM | 0.000103 µM | 0.00113 µM | 0.000561 µM | 0.00138 µM | 0.000227 µM | 0.000237 µM | > 0.1 µM | > 0.1 µM | > 0.1 µM | > 0.1 µM | > 0.1 µM | – |
| C=CCN(/C=C1/C(=O)O[C@H](COC)[C@@]2(C)C1=C(O)C(=O)C1=C2[C@H](OC(C)=O)C[C@]2(C)C(=O)CC[C@@H]12)CC=C [Sonolisib] | – | > 10 µM | – | – | > 10 µM | – | > 10 µM | – | – | > 10 µM | > 10 µM | > 10 µM | > 10 µM | > 10 µM | > 10 µM |
| C/C(=C\c1csc(C)n1)[C@@H]1C[C@@H]2O[C@]2(C)CCC[C@H](C)[C@H](O)[C@@H](C)C(=O)C(C)(C)[C@@H](O)CC(=O)O1 [Patupilone] | 0.00352 µM | 0.00137 µM | 0.000718 µM | 0.000929 µM | 0.00089 µM | 0.00225 µM | 0.00072 µM | 0.00245 µM | 0.00103 µM | 0.0121 µM | > 1 µM | 0.00433 µM | 0.00917 µM | 0.00103 µM | – |
| Cc1sc2c(c1C)C(c1ccc(Cl)cc1)=N[C@H](CC(=O)OC(C)(C)C)c1nnc(C)n1-2 [(-)JQ1] | – | – | – | – | – | – | – | – | – | > 10 µM | – | > 10 µM | > 10 µM | > 10 µM | > 10 µM |
| CN1CCN(c2nc(C3=C(c4c[nH]c5ccccc45)C(=O)NC3=O)c3ccccc3n2)CC1 [Sotrastaurin] | – | > 10 µM | – | > 10 µM | > 10 µM | – | – | > 10 µM | > 10 µM | > 10 µM | > 10 µM | > 10 µM | > 10 µM | > 10 µM | > 10 µM |
| COc1cccc2cc(-c3nc([C@H]4CC[C@H](C(=O)O)CC4)n4ncnc(N)c34)[nH]c12 [OSI-027] | 0.631 µM | 3.47 µM | 0.608 µM | 0.712 µM | 3.8 µM | 0.883 µM | 0.788 µM | 1.15 µM | 1.81 µM | > 10 µM | > 10 µM | > 10 µM | > 10 µM | > 10 µM | – |
| CO[C@H](C(=O)[C@@H](O)[C@@H](C)O)[C@@H]1Cc2cc3cc(O[C@H]4C[C@@H](O[C@H]5C[C@@H](O)[C@H](O)[C@@H](C)O5)[C@@H](O)[C@@H](C)O4)c(C)c(O)c3c(O)c2C(=O)[C@H]1O[C@H]1C[C@@H](O[C@H]2C[C@@H](O[C@H]3C[C@](C)(O)[C@H](O)[C@@H](C)O3)[C@H](O)[C@@H](C)O2)[C@H](O)[C@@H](C)O1 [Plicamycin] | 0.102 µM | 0.865 µM | 0.0852 µM | 0.0456 µM | 1.38 µM | 0.0514 µM | 0.564 µM | 0.052 µM | 0.0475 µM | 0.255 µM | 2.41 µM | > 10 µM | 0.247 µM | 0.0333 µM | – |
| CCCC(CCC)C(=O)O [Valproic acid aq] | – | – | – | 269 µM | – | 168 µM | – | 217 µM | 254 µM | > 1000 µM | – | – | > 1000 µM | – | > 1000 µM |
| CC(C)n1cnc2c(NCCc3ccc(O)cc3)nc(-c3csc4ccccc34)nc21 [StemRegenin 1] | – | 3.54 µM | – | 3.83 µM | 3.2 µM | 2.52 µM | > 10 µM | 2.2 µM | 3.83 µM | > 10 µM | > 10 µM | > 10 µM | > 10 µM | – | > 10 µM |
| C[C@H]1C[C@@H]2[C@H]([C@@H](O)C[C@@]3(C)[C@H]2CC[C@]3(O)C(=O)CO)[C@@]2(C)C=CC(=O)C=C12 [Methylprednisolone] | – | – | – | > 10 µM | > 10 µM | – | – | > 10 µM | > 10 µM | > 10 µM | > 10 µM | > 10 µM | > 10 µM | > 10 µM | > 10 µM |
| Cn1cc(C2=C(c3cn(C4CCN(Cc5ccccn5)CC4)c4ccccc34)C(=O)NC2=O)c2ccccc21 [Enzastaurin] | – | – | – | – | – | – | > 10 µM | 2.91 µM | – | > 10 µM | > 10 µM | > 10 µM | > 10 µM | – | > 10 µM |
| C[C@]1(c2nc3c(C(N)=O)cccc3[nH]2)CCCN1 [Veliparib] | – | > 10 µM | – | – | – | > 10 µM | 1.16 µM | – | > 10 µM | > 10 µM | > 10 µM | > 10 µM | > 10 µM | > 10 µM | > 10 µM |
| COc1cc2ncnc(Nc3ccc(F)c(Cl)c3)c2cc1OCCCN1CCOCC1 [Gefitinib] | 3.6 µM | 1.9 µM | 4.16 µM | 2.94 µM | 1.78 µM | 3.56 µM | 0.987 µM | 2.69 µM | 3.77 µM | > 10 µM | > 10 µM | 2.95 µM | > 10 µM | 3.93 µM | – |
